Experiments:
E. coli = details: prior report, Kang et al., 2014; cited from earlier work
E. coli NST74 = assay: Assaying 2PE toxicity: growth challenge with exogenous 2PE; type: cell-based, Escherichia coli
Protocol: Error bars reported at one standard deviation from triplicate experiments.
The effects of 2PE on E. coli growth rate and yield was determined by monitoring the impacts of its exogenous addition at increasing final concentrations on growing cultures. Approximately 1 ml of an E. coli NST74 seed culture was used to inoculate 50 ml of LB broth in a 250 mL shake flask. When cultures reached OD600˜0.6, 2PE was added to the flasks at an array of final concentrations ranging from 0 to 2 g/L. Culturing then resumed for an additional 6 h with periodic monitoring of OD600.
To assess if 2PE production in these initial strains was perhaps limited by end-product inhibition, a growth challenge study was performed determine to the response of E. coli growth to the addition of exogenous 2PE at a range of increasing final concentrations (FIG. 4).

TyrB = TyrB (Escherichia coli, UniProt P04693); details: TyrB (Phe aminotransferase), substrate phenylpyruvate; cited from earlier work
ARO10 = molecular target: T1, ARO10 (Saccharomyces cerevisiae, UniProt Q06408); details: ARO10 (PPDC), substrate phenylpyruvate; cited from earlier work
T1 sequence (Q06408 1-635): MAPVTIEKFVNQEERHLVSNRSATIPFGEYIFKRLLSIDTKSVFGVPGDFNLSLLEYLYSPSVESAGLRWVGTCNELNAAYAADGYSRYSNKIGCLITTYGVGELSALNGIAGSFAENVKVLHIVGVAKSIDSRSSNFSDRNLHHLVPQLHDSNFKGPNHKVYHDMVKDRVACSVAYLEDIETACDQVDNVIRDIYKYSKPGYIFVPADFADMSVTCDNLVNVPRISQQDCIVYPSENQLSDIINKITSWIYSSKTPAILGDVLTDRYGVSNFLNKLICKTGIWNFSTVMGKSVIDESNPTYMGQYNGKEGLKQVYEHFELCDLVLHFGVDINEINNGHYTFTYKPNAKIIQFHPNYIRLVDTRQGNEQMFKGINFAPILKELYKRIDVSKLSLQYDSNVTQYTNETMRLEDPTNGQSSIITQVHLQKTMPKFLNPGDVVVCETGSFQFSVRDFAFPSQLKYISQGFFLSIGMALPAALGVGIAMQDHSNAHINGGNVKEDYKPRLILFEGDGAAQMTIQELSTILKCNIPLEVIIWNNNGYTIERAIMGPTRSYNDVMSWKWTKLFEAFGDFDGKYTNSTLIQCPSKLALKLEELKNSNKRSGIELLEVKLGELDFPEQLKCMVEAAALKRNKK

[1] = exogenous 2PE added at OD600~0.6, LB broth, 6 h monitoring of OD600

TyrB, sequence (P04693 whole entry): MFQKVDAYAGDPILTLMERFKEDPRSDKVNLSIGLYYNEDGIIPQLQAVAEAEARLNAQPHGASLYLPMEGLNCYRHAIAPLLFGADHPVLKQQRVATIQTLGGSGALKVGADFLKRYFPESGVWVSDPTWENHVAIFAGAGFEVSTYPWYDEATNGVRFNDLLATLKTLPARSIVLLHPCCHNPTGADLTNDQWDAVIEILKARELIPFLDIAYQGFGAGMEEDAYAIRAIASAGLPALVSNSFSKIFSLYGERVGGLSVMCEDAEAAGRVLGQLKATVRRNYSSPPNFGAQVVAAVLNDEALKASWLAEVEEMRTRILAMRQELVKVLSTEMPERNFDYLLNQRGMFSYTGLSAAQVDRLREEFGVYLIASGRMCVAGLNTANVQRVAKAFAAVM

Compound | level reported to inhibit E. coli (E. coli) | toxicity threshold (E. coli NST74; E. coli growth) | 2PE concentration at which growth rate and yield were reduced (E. coli NST74; [1]) | 2PE concentration at which severe growth inhibition occurred (E. coli NST74; [1]) | Km (TyrB) | Km (ARO10)
OCCc1ccccc1 [2PE, 2-phenylethanol] | ~1000 µg/mL | ~2 g/L | 1 g/L | about 2 g/L |  | 
O=C(O)C(=O)Cc1ccccc1 [phenylpyruvate] |  |  |  |  | 12 µM | 100 µM
